Assays:
KPC-2 β-lactamase = target: T1, KPC-2 β-lactamase (Klebsiella pneumoniae, UniProt Q9F663); assay: β-lactamase enzyme inhibition, KPC-2; format: biochemical; conditions: imipenem substrate, 300 nm; 15 min at 37° C. preincubation; read-out: IC50 KPC-2 (Class A)
T1 construct: made in house; host or cells: E. coli BL21(DE3)
In short: (§1)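 IC50 was the inhibitor concentration halving the initial hydrolysis rate versus no-inhibitor wells, following a 15 min 37° C. enzyme–inhibitor preincubation. Substrates: imipenem read at 300 nm for KPC-2, cefotaxime at 260 nm for SHV-5, and nitrocefin (100 μM final) at 486 nm for OXA-1 and p99 AmpC. Enzymes were recombinant untagged proteins from E. coli BL21(DE3).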

[1] = test system: E. coli ESBL4 expressing CTX-M-15; assay: broth microdilution MIC, E. coli CTX-M-15; format: cell-based; conditions: Fixed CAZ (ceftazidime) 4 μg/mL
In short: (§2)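 Following CLSI broth microdilution, plates were read by eye for MIC after 16–20 h incubation at 37 °C. Each well held a fixed 4 μg/mL β-lactam overlay plus test compound serially halved from 32 to 0.25 μg/mL in CAMHB. Inocula came from 3–5 h broth cultures.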

[2] = test system: K. pneumoniae A-1797 expressing KPC-2 and VIM-4; assay: broth microdilution MIC, K. pneumoniae KPC-2 and VIM-4; format: cell-based; conditions: Fixed Mero (meropenem) 4 μg/mL
In short: as §2

[3] = test system: S. aureus MSSA-7 producing penicillinase PC-1; assay: broth microdilution MIC, S. aureus PC-1; format: cell-based; conditions: Fixed Pip (piperacillin) 4 μg/mL
Description: (§3) To determine the ability of test compounds to potentiate the inhibition of the growth of bacterial strains that produce beta-lactamase enzymes, classic cell based broth microdilution MIC assays were employed. Six bacteria strains producing beta-lactamase enzymes were used: E. coli expressing the Class A Extended Spectrum Beta-Lactamase (ESBL) CTX-M-15, E. cloacae expressing the Class C P99, K. pneumoniae expressing the Class A carbapenemase KPC-3, P. aeruginosa expressing the Class B carbapenemase VIM-2, K pneumoniae expressing the class A carbapenemase KPC-2 and the class B carbapenemase VIM-4, and S. aureus producing the Class A penicillinase PC-1. The assay was conducted in Cation Adjusted Mueller Hinton Broth (CAMHB, BD #212322, BD Diagnostic Systems, Sparks, Md.). Bacteria strains were grown for 3-5 hours in CAMBH broth. Test compounds were added to a microtiter plate in 2-fold serial dilutions in CAMHB in a final concentration range of 32 μg/mL to 0.25 μg/ml. An overlay of CAMHB containing a Beta-lactam was added to the compounds at a final static concentration of 4 μg/ml. […] In addition to the titration of test compounds the MICs of a panel of control beta-lactams is also tested to ensure the strains are behaving consistently from test to test. Once the test compound and antibiotics are added the plates can be inoculated according to CLSI broth microdilution method. After inoculation the plates are incubated for 16-20 hours at 37° C., then the Minimal Inhibitory Concentration (MIC) of the test compound is determined visually.
(§4) Using the methodology described above, examples of the current invention were evaluated for their ability to inhibit the growth of β-lactamase-producing bacteria in the presence of a β-lactam antibiotic.
(§5) Representative results are shown in Table 4 where A represents an MIC of the fixed β-lactam antibiotic in the presence of >32 µg/mL of a β-lactamase inhibitor of exemplary compounds, B represents the MIC in the presence of between 8 and 32 µg/mL of a β-lactamase inhibitor of exemplary compounds, and C represents the MIC in the presence of ≤4 µg/mL of a β-lactamase inhibitor of exemplary compounds. NT=Not Tested.

[4] = test system: P. aeruginosa Ps296 expressing VIM-2; assay: broth microdilution MIC, P. aeruginosa VIM-2; format: cell-based; conditions: Fixed Mero (meropenem) 4 μg/mL
Description: as §3, §4, §5

[5] = test system: K. pneumoniae 156319 expressing KPC-3; assay: broth microdilution MIC, K. pneumoniae KPC-3; format: cell-based; conditions: Fixed Mero (meropenem) 4 μg/mL
In short: as §2

SHV-5 β-lactamase = target: T2, SHV-5 β-lactamase (Klebsiella pneumoniae, UniProt P0A3M1); assay: β-lactamase enzyme inhibition, SHV-5; format: biochemical
T2 construct: made in house; host or cells: E. coli BL21(DE3)
T2 sequence (P0A3M1 22-286): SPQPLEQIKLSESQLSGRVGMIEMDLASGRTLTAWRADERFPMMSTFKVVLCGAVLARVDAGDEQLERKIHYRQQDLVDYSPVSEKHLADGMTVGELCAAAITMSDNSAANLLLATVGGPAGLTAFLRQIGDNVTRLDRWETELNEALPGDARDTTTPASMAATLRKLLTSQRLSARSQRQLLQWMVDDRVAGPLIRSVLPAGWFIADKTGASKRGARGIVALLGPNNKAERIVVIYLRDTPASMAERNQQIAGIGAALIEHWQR
In short: as §1

[6] = target: T3, VIM-2 metallo β-lactamase (Pseudomonas aeruginosa, UniProt Q9K2N0); assay: β-lactamase enzyme inhibition, VIM-2; format: biochemical; conditions: Nitrocefin 100 μM, 486 nm; 15 min at 37° C. preincubation; read-out: IC50 VIM-2 (Class B)
T3 construct: made in house; host or cells: E. coli BL21(DE3)
In short: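 Inhibitor and enzyme sat together 15 min at 37° C before 100 μM nitrocefin (final) was added and 486 nm absorbance read for 10 min. IC50 is the concentration halving initial hydrolysis rate relative to uninhibited wells. Protein came from Q sepharose anion exchange at pH 7.5, repeated to >90% purity.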

[7] = test system: E. cloacae 144200 expressing Class C P99 AmpC; assay: broth microdilution MIC, E. cloacae P99; format: cell-based; conditions: Fixed CAZ (ceftazidime) 4 μg/mL
In short: as §2

OXA-1 β-lactamase = target: T4, OXA-1 β-lactamase (Escherichia coli, UniProt P13661); assay: β-lactamase enzyme inhibition, OXA-1; format: biochemical; conditions: Nitrocefin 100 μM, 486 nm; 15 min at 37° C. preincubation; read-out: IC50 OXA-1 (Class D)
T4 construct: made in house; host or cells: E. coli BL21(DE3)
T4 sequence (P13661 26-276): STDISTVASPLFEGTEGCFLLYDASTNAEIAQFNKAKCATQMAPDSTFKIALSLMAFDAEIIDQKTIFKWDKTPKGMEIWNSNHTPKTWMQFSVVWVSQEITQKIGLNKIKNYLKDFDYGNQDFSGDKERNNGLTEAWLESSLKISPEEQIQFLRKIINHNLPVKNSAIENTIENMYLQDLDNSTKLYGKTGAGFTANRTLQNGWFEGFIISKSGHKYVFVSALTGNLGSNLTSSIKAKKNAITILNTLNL
In short: as §1

p99 AmpC β-lactamase = target: T5, p99 AmpC β-lactamase (Enterobacter cloacae, UniProt P05364); assay: β-lactamase enzyme inhibition, p99 AmpC; format: biochemical
T5 construct: made in house; host or cells: E. coli BL21(DE3)
T5 sequence (P05364 21-381): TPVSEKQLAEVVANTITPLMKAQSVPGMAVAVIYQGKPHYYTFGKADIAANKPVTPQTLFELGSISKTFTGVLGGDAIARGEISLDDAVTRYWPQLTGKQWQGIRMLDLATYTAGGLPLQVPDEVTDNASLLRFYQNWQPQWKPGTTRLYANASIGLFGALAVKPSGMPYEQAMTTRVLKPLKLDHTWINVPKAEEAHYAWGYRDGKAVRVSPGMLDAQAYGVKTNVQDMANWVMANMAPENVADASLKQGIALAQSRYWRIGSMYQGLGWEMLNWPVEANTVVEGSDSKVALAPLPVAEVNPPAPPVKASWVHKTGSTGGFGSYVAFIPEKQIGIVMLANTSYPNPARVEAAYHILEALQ
In short: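 Inhibitor and enzyme were incubated 15 min at 37°C first. The enzyme was recombinant p99 AmpC, untagged, from E. coli BL21(DE3), purified by ion-exchange and size-exclusion chromatography.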

T1 sequence (Q9F663 25-293, looked up): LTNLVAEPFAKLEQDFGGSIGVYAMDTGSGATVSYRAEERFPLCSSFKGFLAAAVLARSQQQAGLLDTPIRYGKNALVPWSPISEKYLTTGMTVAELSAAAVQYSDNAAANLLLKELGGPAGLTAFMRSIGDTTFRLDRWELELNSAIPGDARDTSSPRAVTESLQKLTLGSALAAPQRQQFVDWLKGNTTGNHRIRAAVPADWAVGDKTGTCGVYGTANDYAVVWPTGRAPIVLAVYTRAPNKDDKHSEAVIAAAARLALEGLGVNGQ

SMILES	IC50 (KPC-2 β-lactamase) [nM]	MIC of exemplary compounds in presence of fixed β-lactams, E. coli ESBL4 CTX-M-15 [1]	MIC of exemplary compounds in presence of fixed β-lactams, K.P. A-1797 KPC-2 VIM-4 [2]	MIC of exemplary compounds in presence of fixed β-lactams, S. aureus MSSA-7 PC-1 [3]	MIC of exemplary compounds in presence of fixed β-lactams, P. aerug. Ps296 VIM-2 [4]	MIC of exemplary compounds in presence of fixed β-lactams, K.P. 156319 KPC-3 [5]	IC50 (SHV-5 β-lactamase) [nM]	IC50 [6] [nM]	MIC of exemplary compounds in presence of fixed β-lactams, E. cl. 144200 p99 AmpC [7]	IC50 (OXA-1 β-lactamase) [nM]	IC50 (p99 AmpC β-lactamase) [nM]
CC(O)(O)C(=O)N[C@H]1Cc2cccc(C(=O)O)c2OB1O [Example 3, (R)-3-(2,2-Dihydroxy-propionylamino)-2-hydroxy-3,4-dihydro-2H-benzo[e][1,2]oxaborinine-8-carboxylic acid]	100 to 1000	C (C represents the MIC in the presence of ≤4 g/mL of a β-lactamase inhibitor)	A (A represents an MIC of the fixed β-lactam antibiotic in the presence of >32 g/mL of a β-lactamase inhibitor)	C (C represents the MIC in the presence of ≤4 g/mL of a β-lactamase inhibitor)	C (C represents the MIC in the presence of ≤4 g/mL of a β-lactamase inhibitor)	C (C represents the MIC in the presence of ≤4 g/mL of a β-lactamase inhibitor)	100 to 1000	1000 to 10000	C (C represents the MIC in the presence of ≤4 g/mL of a β-lactamase inhibitor)	< 100	< 100
O=C(CC(F)(F)F)N[C@H]1Cc2cccc(C(=O)O)c2OB1O [Example 4, (R)-2-Hydroxy-3-(3,3,3-trifluoro-propionylamino)-3,4-dihydro-2H-benzo[e][1,2]oxaborinine-8-carboxylic acid]	100 to 1000	C (C represents the MIC in the presence of ≤4 g/mL of a β-lactamase inhibitor)	B (B represents the MIC in the presence of between 8 and 32 g/mL of a β-lactamase inhibitor)	C (C represents the MIC in the presence of ≤4 g/mL of a β-lactamase inhibitor)	C (C represents the MIC in the presence of ≤4 g/mL of a β-lactamase inhibitor)	C (C represents the MIC in the presence of ≤4 g/mL of a β-lactamase inhibitor)	< 100	1000 to 10000	C (C represents the MIC in the presence of ≤4 g/mL of a β-lactamase inhibitor)	< 100	< 100
O=C(O)c1cccc2c1OB(O)[C@@H](NC(=O)C(Cl)CC(F)F)C2 (stereo partly drawn) [Example 5, (R)-3-(2-Chloro-4,4-difluoro-butyrylamino)-2-hydroxy-3,4-dihydro-2H-benzo[e][1,2]oxaborinine-8-carboxylic acid]	< 100	C (C represents the MIC in the presence of ≤4 g/mL of a β-lactamase inhibitor)	B (B represents the MIC in the presence of between 8 and 32 g/mL of a β-lactamase inhibitor)	C (C represents the MIC in the presence of ≤4 g/mL of a β-lactamase inhibitor)	A (A represents an MIC of the fixed β-lactam antibiotic in the presence of >32 g/mL of a β-lactamase inhibitor)	C (C represents the MIC in the presence of ≤4 g/mL of a β-lactamase inhibitor)	< 100	1000 to 10000	C (C represents the MIC in the presence of ≤4 g/mL of a β-lactamase inhibitor)	< 100	< 100
